Measured values taken from patent publication US20060178307A1, “Modulation of NMDA receptor currents via orexin receptor and/or CRF receptor” (priority 2005, published 2006).
“Also recorded” adds a separate entry of the source. Where no end group is shown, it is not given here.

Experiments:
10% ethanol consumption = experiment: Voluntary ethanol consumption, limited-access two-bottle choice, icv infusion; type: in vivo, Long Evans rats; conditions: 5 μg ICV, n=14
Method: Agents in these in vivo studies were administered to either the lateral ventricle (icv) or ventral tegmental area (VTA) in rats by cannulae, which were implanted as follows. One week after the rats achieved baseline drinking and lever pressing levels in the 2-bottle choice and ethanol self-administration paradigms described below, they were anesthetized with 75 mg/kg pentobarbital sodium and placed in a stereotaxic frame. The head was shaved and scrubbed with an antiseptic solution of betadine/2% H2O2, followed by 2.5% topical xylocalne jelly. The skull was exposed and two to three holes were drilled for implantation of sterile miniature skull screws (⅛″, Small Parts, Inc.). […]
These experiments test the effects of the CRF system on voluntary ethanol consumption using a limited-access paradigm. […] Animal weights were measured daily in order to calculate the gram per kilogram intake. Ethanol preference (%) was calculated as the grams of ethanol consumed divided by the total fluid consumption (grams of ethanol+grams of water). The data was corrected for evaporation and spillage by subtracting the mean fluid loss measured in four drinking tubes placed on empty cages. […]
The effects of CRF (5 μg) and the CRF inhibitor CRF (6-33) (5 μg) on limited access (30 min) 10% ethanol drinking were measured using a limited-access two-bottle choice procedure.

[1] = system: NMDAR-mediated currents in VTA dopamine cells; experiment: CRF-related peptides on NMDAR-mediated currents at excitatory synapses onto VTA dopamine cells; type: cell-based; conditions: mammalian brain
NMDAR eEPSCs = conditions: cited from earlier work

Substance	10% ethanol consumption (10% ethanol consumption; limited access, compared to CRF alone)	water consumption (10% ethanol consumption)	potentiation of NMDAR currents [1]	potentiation of NMDARs (NMDAR eEPSCs; 10 nM CRF, mice)	NMDAR eEPSCs, concentration dependent (NMDAR eEPSCs; mice (FIG. 13))
CRF (6-33): indirect CRF receptor antagonist that acts by displacing CRF from CRF-BP (ISLDLTFHLLREVLEMARAEQLAQQAHS; Corticoliberin; UniProt P06850 159-186, looked up, fragment)	significantly reduced	no effect; also recorded: did not reduce	–	–	–
CRF: Corticotrophin-releasing factor, a 41 amino acid peptide; direct CRF receptor agonist (SEEPPISLDLTFHLLREVLEMARAEQLAQQAHSNRKLMEII; ends and bridges not checked; UniProt P06850 154-194, looked up)	–	–	increases	no potentiation	increased
